This is an account of results in patent US7183252B2, “Indole peptidomimetics as thrombin receptor antagonists” (Ortho-McNeil Pharmaceutical, Inc., priority 1999, dated 2007).

Where two headings read alike, the source gives them in different places.

The test system of one assay is gel-filtered platelets. The experiment in a line: In vitro inhibition of thrombin-induced gel-filtered platelet aggregation. It is filed as cell-based. Conditions: human gel-filtered platelets, agonist thrombin 50 μL of 1 unit/mL, read-out: Thrmb IC50 (Thrombin-induced aggregation of gel-filtered platelets). The gist of the method: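 Gel-filtered (Sepharose 2B) human platelets from citrated PRP, 2×10^7 per sample, in Tyrode's buffer pH 7.4 with BSA and added calcium, preincubated with test compound. Aggregation induced by thrombin (50 μL of 1 unit/mL) and followed as light transmission over 3 min. Inhibition is taken relative to control-treated platelets.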

In assay [1] the target is T1, thrombin receptor (PAR-1) (Homo sapiens, UniProt P25116).
T1 construct: CHRF membranes (Jones, Biochim. Biophys. Acta 1992, 1136, 272) are thawed from −70° C; endogenous in cells; host or cells: CHRF cell membranes
T1 sequence (P25116 22-425): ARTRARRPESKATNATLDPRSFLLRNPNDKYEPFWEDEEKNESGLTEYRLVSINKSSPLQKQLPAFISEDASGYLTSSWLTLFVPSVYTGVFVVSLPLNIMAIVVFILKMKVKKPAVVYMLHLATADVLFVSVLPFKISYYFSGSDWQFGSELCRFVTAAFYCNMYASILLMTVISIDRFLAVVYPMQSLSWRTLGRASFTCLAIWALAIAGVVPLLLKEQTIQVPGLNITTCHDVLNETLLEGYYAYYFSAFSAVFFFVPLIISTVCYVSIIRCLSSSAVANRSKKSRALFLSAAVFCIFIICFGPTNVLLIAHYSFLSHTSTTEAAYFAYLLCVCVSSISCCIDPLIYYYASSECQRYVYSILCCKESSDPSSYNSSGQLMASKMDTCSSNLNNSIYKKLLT
The experiment in a line: In vitro thrombin receptor binding assay (CHRF membranes). Conditions: tritiated 721-40 radioligand, read-out: Bndg IC50 (Thrombin receptor binding). The gist of the method: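 CHRF cell membranes incubated 30 min with tritiated peptide agonist 721–40 and compound at 3.7 μg/mL final (0.6% DMSO) in HEPES/MgCl2/BSA buffer. Nonspecific binding defined with unlabeled 721–40; bound radioactivity counted after filtration onto PEI-treated filters.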

With `NCC[C@H](NC(=O)[C@H](CC1CCCCC1)NC(=O)Nc1ccc2c(CN3CCCC3)cn(Cc3c(Cl)cccc3Cl)c2c1)C(=O)NCc1ccccc1` [Compound 155], the IC50 in the assay on gel-filtered platelets (Platelet) was determined as 11 µM; in assay [1], 13.5 µM.
The like results for `COCC[C@H](NC(=O)[C@H](Cc1ccc(F)c(F)c1)NC(=O)Nc1ccc2c(CN3CCCC3)cn(Cc3c(Cl)cccc3Cl)c2c1)C(=O)NCCN` [Compound 156] were, in that order, 0.6 µM and 0.04 µM.
Turning to `C[C@@H](NC(=O)[C@H](CCN)NC(=O)[C@H](Cc1ccc(F)c(F)c1)NC(=O)Nc1ccc2c(CN3CCCC3)cn(Cc3c(Cl)cccc3Cl)c2c1)c1ccccc1` [Compound 157], the IC50 in the assay on gel-filtered platelets was found to be 0.66 µM; in assay [1], 0.48 µM.
The matching figures for `NCC[C@H](NC(=O)[C@H](Cc1ccc(F)c(F)c1)NC(=O)Nc1ccc2c(CN3CCCC3)cn(Cc3c(Cl)cccc3Cl)c2c1)C(=O)NCc1ccc([N+](=O)[O-])cc1` [Compound 158]: 0.74 µM and 1.8 µM.
The matching figures for `Cc1coc(CNC(=O)[C@H](CCN)NC(=O)[C@H](Cc2ccc(F)c(F)c2)NC(=O)Nc2ccc3c(CN4CCCC4)cn(Cc4c(Cl)cccc4Cl)c3c2)c1` [Compound 159]: 0.43 µM and 0.7 µM.
As for `COc1ccc(C[C@H](NC(=O)Nc2ccc3c(c2)c(CN2CCCCC2)cn3Cc2ccc(F)cc2)C(=O)N[C@@H](CCCNC(=N)N)C(=O)NCc2ccccc2)cc1` [Compound 162], the IC50 came out at 13 µM in the assay with gel-filtered platelets (Platelet) and 5.3 µM in assay [1].
The like results for `COc1ccc(C[C@H](NC(=O)Nc2ccc3c(c2)c(CN2CCSC2)cn3Cc2ccc(F)cc2)C(=O)N[C@@H](CCCNC(=N)N)C(=O)NCc2ccccc2)cc1` [Compound 163] were, in that order, 30 µM and 3 µM.
The like results for `NCC[C@H](NC(=O)[C@H](Cc1ccc(F)c(F)c1)NC(=O)Nc1ccc2c(c1)c(CN1CCCC1)cn2Cc1ccc(F)cc1)C(=O)NCc1ccccc1` [Compound 164] were, in that order, 13.6 µM and 11.8 µM.
Consider `NCC[C@H](NC(=O)[C@H](Cc1ccc(F)c(F)c1)NC(=O)Nc1cccc2c1c(CN1CCCC1)cn2Cc1c(Cl)cccc1Cl)C(=O)NCc1ccccc1` [Compound 165], for which the IC50 was 4.8 µM in the assay with gel-filtered platelets (Platelet) and 49.6 µM in assay [1].
The like results for `NCC[C@H](NC(=O)[C@H](Cc1ccc(F)c(F)c1)NC(=O)Nc1cccc2c1c(CN1CCCC1)cn2Cc1c(Cl)cccc1Cl)C(=O)NCCN1CCCC1` [Compound 166] were, in that order, 40.3 µM and 2 µM.
The matching figures for `NCC[C@H](NC(=O)[C@H](Cc1ccc(F)c(F)c1)NC(=O)Nc1cccc2c(CN3CCCC3)cn(Cc3c(Cl)cccc3Cl)c12)C(=O)NCc1ccccc1` [Compound 167]: 8.5 µM and 67.6 µM.
The matching figures for `Cc1ccccc1Cn1cc(CN2CCCC2)c2cccc(NC(=O)N[C@@H](Cc3ccc(F)c(F)c3)C(=O)N[C@@H](CCN)C(=O)NCc3ccccc3)c21` [Compound 168]: 8.3 µM and 64.3 µM.
For `N=C(N)NCCC[C@H](NC(=O)[C@H](Cc1ccc(F)c(F)c1)NC(=O)Nc1ccc2c(CN3CCCC3)c(-c3ccccc3)n(Cc3ccc(F)cc3)c2c1)C(=O)NCc1ccc(F)cc1` [Compound 171, L-Argininamide, 3,4-difluoro-N-[[[1-[(4-fluorophenyl)methyl]-2-phenyl-3-(1-pyrrolidinylmethyl)-1H-indol-6-yl]amino]carbonyl]-L-phenylalanyl-N-[(4-fluorophenyl)methyl]-], the IC50 in the assay with gel-filtered platelets (Platelet) came out at 1 µM; in assay [1], 0.1 µM.
The like results for `Cc1ccccc1Cn1c(Cl)c(CN2CCCC2)c2ccc(NC(=O)N[C@@H](Cc3ccc(F)c(F)c3)C(=O)N[C@@H](CCCNC(=N)N)C(=O)NCc3ccccc3)cc21` [Compound 172] were, in that order, greater than 10 µM and 6.8 µM.
For the compound `Cc1ccccc1Cn1c(Cl)c(CN2CCCC2)c2ccc(NC(=O)N[C@@H](Cc3cccc(F)c3)C(=O)N[C@@H](CCCN=C(N)N)C(=O)NCc3ccc(F)cc3)cc21` [Compound 173], the IC50 turned out to be 2 µM in the assay with gel-filtered platelets (Platelet) and 0.76 µM in assay [1].
As to `NCCNC(=O)[C@H](Cc1ccncc1)NC(=O)[C@H](Cc1ccc(F)c(F)c1)NC(=O)c1ccc2c(CN3CCCC3)cn(Cc3c(Cl)cccc3Cl)c2c1` [Compound 175, L-Alaninamide, N-[[1-[(2,6-dichlorophenyl)methyl]-3-(1-pyrrolidinylmethyl)-1H-indol-6-yl]carbonyl]-3,4-difluoro-L-phenylalanyl-N-(2-aminoethyl)-3-(4-pyridinyl)-], the IC50 in the assay with gel-filtered platelets (Platelet) amounted to 1.6 µM; in assay [1], 0.09 µM.
As for `NCCNC(=O)[C@@H](Cc1ccncc1)NC(=O)[C@@H](Cc1ccc(F)c(F)c1)NC(=O)c1ccc2c(CN3CCCC3)cn(Cc3c(Cl)cccc3Cl)c2c1` [Compound 176], the IC50 with gel-filtered platelets stood at 45.7 µM; in assay [1], 43.2 µM.
In the case of `NCCNC(=O)[C@H](Cc1cccs1)NC(=O)[C@H](Cc1ccc(Cl)cc1)NC(=O)c1ccc2c(CN3CCCC3)cn(Cc3c(Cl)cccc3Cl)c2c1` [Compound 177], the IC50 in the assay on gel-filtered platelets (Platelet) was found to be 4.4 µM; in assay [1], 0.62 µM.
In the case of `NCCNC(=O)[C@@H](Cc1cccs1)NC(=O)[C@@H](Cc1ccc(Cl)cc1)NC(=O)c1ccc2c(CN3CCCC3)cn(Cc3c(Cl)cccc3Cl)c2c1` [Compound 178], the IC50 stood at 40.7 µM with gel-filtered platelets (Platelet) and 9.9 µM in assay [1].
